In article PMC5072426, “Inhibition of cathepsin B by caspase-3 inhibitors blocks programmed cell death in Arabidopsis” (Cell Death and Differentiation, 2016):
Peptide text beside a SMILES is read from it.

Molecular target: T1, recombinant AtCathB3 (Arabidopsis cathepsin B3) (Arabidopsis thaliana, UniProt Q94K85)
T1 construct: gene CATHB3; 25-residue signal peptide removed; N-terminal cherrytag (11 kDa), C-terminal 6xHis; secreted from baculovirus-infected insect cells (Sf9/Hi-5); N-glycosylated
T1 sequence (Q94K85 26-359): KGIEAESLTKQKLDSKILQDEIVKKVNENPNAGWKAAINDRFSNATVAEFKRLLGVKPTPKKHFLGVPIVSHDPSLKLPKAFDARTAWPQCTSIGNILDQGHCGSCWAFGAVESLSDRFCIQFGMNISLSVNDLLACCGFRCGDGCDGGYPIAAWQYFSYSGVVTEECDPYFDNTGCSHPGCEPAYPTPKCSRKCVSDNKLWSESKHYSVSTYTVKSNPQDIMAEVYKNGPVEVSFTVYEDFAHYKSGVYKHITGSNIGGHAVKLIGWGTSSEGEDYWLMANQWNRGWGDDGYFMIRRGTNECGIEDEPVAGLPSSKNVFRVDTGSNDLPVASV
Experiment: fluorogenic DEVDase assay, inhibitor pre-incubated […] min
Type: biochemical

Row | SMILES | remaining activity at 100 µM | remaining activity at 1000 µM
1 | CC(=O)N[C@@H](Cc1ccc(O)cc1)C(=O)N[C@H](C(=O)N[C@@H](C)C(=O)N[C@H](C=O)CC(=O)O)C(C)C [YVAD-CHO, Ac-YVAD-CHO] | 43.3 ± 0.6% | –
2 | CCCNC(=O)[C@H]1O[C@@H]1C(=O)N[C@H](C(=O)N1CCC[C@H]1C(=O)O)[C@@H](C)CC [CA-074] | – | 0%
3 | CC(C)[C@H](NC(=O)[C@H](CCC(=O)O)NC(=O)[C@H](CC(=O)O)NC(=O)OCc1ccccc1)C(=O)N[C@H](C=O)CC(=O)O [DEVD-CHO, Z-DEVD-CHO] | 0.3% | –
4 | CC(=O)N[C@@H](CC(C)C)C(=O)N[C@H](C(=O)N[C@H](C=O)CCCCN)C(C)C [LVK-CHO, Ac-LVK-CHO] (Ac-Leu-Val-Lys-aldehyde) | 0% | –
